Assay results published in US7238701B2, “Substituted tetrahydrobenzothienopyrimidinamine compounds useful for treating hyper-proliferative disorders” (Bayer Pharmaceuticals Corporation, priority 2003, dated 2007).

Columns and labels:
[1] = system: A431cells (human epidermoid carcinoma); assay: In vitro tumor cell proliferation assay (Cell Titer-Glo luminescent cell viability), A431 cells; assay type: cell-based; details: A-431, 72 h, 72 hours drug exposure, 10% Fetal Bovine Serum, ATP luminescence readout, read-out: IC50 (50% inhibition of cell proliferation)
Source text: (§1) In vitro Tumor Cell Proliferation Assay
(§2) The tumor cell proliferation assay used to test the compounds of the present invention involves a readout called Cell Titer-Glow® Luminescent Cell Viability Assay developed by Promega (Cunningham, B A “A Growing Issue: Cell Proliferation Assays, Modern kits ease quantification of cell growth” The Scientist 2001, 15(13), 26, and Crouch, S P et al., “The use of ATP bioluminescence as a measure of cell proliferation and cytotoxicity” Journal of Immunological Methods 1993, 160, 81–88), that measures inhibition of cell proliferation. Generation of a luminescent signal corresponds to the amount of ATP present, which is directly proportional to the number of metabolically active (proliferating) cells.
(§3) A431cells (human epidermoid carcinoma, ATCC # HTB-20) and BT474 (human breast carcinoma, ATCC # CRL-1555) were plated at a density of 2.5×10^3 cells/well in 96 well black-clear bottom tissue culture plates in RPMI media with 10% Fetal Bovine Serum and incubated at 37° C. Twenty-four hours later, test compounds are added at a final concentration range from as high 100 μM to as low 64 pM depend on the activities of the tested compounds in serial dilutions at a final DMSO concentration of 0.1%. Cells were incubated for 72 hours at 37° C. in complete growth media after addition of the test compound. After 72 hours of drug exposure, the plates were equilibrated to room temperature for approximately 30 min. Then, using a Promega Cell Titer Glo Luminescent® assay kit, lysis buffer containing 100 microliters of the enzyme luciferase and its substrate, luciferin mixture, was added to each well. The plates were mixed for 2 min on orbital shaker to ensure cell lysis and incubated for 10 min at room temperature to stabilize luminescence signal. The samples were read on VICTOR 2 using Luminescence protocol, and analyzed with Analyze5 software to generate IC50 values.

[2] = system: BT474 (human breast carcinoma); assay: In vitro tumor cell proliferation assay (Cell Titer-Glo luminescent cell viability), BT474 cells; assay type: cell-based; details: BT-474, 72 hours drug exposure, 10% Fetal Bovine Serum, ATP luminescence readout, read-out: IC50 (50% inhibition of cell proliferation)
Source text: as §1, §2, §3

N#Cc1ccc(N2CCN(C(=O)C3CCc4c(sc5ncnc(Nc6cccc(Br)c6)c45)C3)CC2)cc1 (stereo not shown) [Example 48, 4-[4-({4-[(3-bromophenyl)amino]-5,6,7,8-tetrahydro[1]benzothieno[2,3-d]pyrimidin-7-yl}carbonyl)-1-piperazinyl]benzonitrile] was tested, and the IC50 [1] was less than 50 µM and the IC50 [2] was less than 5 µM.
With COc1ccc(N2CCN(C(=O)C3CCc4c(sc5ncnc(Nc6cccc(Br)c6)c45)C3)CC2)cc1 (stereo not shown) [Example 49, N-(3-bromophenyl)-7-{[4-(4-methoxyphenyl)-1-piperazinyl]carbonyl}-5,6,7,8-tetrahydro[1]benzothieno[2,3-d]pyrimidin-4-amine] the IC50 [1] was less than 50 µM and the IC50 [2] was less than 50 µM.
Compound CS(=O)(=O)CCNC(=O)C1CCc2c(sc3ncnc(Nc4ccc(F)c(Cl)c4)c23)C1 (stereo not shown) [Example 52, 4-[(3-chloro-4-fluorophenyl)amino]-N-[2-(methylsulfonyl)ethyl]-5,6,7,8-tetrahydro[1]benzothieno[2,3-d]pyrimidine-7-carboxamide] has an IC50 [1] of less than 50 µM and an IC50 [2] of less than 50 µM.
With Fc1ccc(Nc2ncnc3sc4c(c23)CCC(CCN2CCOCC2)C4)cc1Cl (stereo not shown) [Example 54, N-(3-chloro-4-fluorophenyl)-7-[2-(4-morpholinyl)ethyl]-5,6,7,8-tetrahydro[1]benzothieno[2,3-d]pyrimidin-4-amine] the IC50 [1] was less than 5 µM and the IC50 [2] was less than 5 µM.
Work on CS(=O)(=O)CCNCC1CCc2c(sc3ncnc(Nc4ccc(F)c(Cl)c4)c23)C1 (stereo not shown) [Example 55, N-(3-chloro-4-fluorophenyl)-7-({[2-(methylsulfonyl)ethyl]amino}methyl)-5,6,7,8-tetrahydro[1]benzothieno[2,3-d]pyrimidin-4-amine] yielded an IC50 [1] of less than 5 µM and an IC50 [2] of less than 50 µM.
Compound C=CCNC(=O)C1CCc2c(sc3ncnc(Nc4cccc(Br)c4)c23)C1 (stereo not shown) [Example 56, N-allyl-4-[(3-bromophenyl)amino]-5,6,7,8-tetrahydro[1]benzothieno[2,3-d]pyrimidine-7-carboxamide] has an IC50 [1] of less than 50 µM and an IC50 [2] of less than 50 µM.
With CCOC(=O)CC1CCc2c(sc3ncnc(Nc4ccc(F)c(Cl)c4)c23)C1 (stereo not shown) [Example 57, ethyl {4-[(3-chloro-4-fluorophenyl)amino]-5,6,7,8-tetrahydro[1]benzothieno[2,3-d]pyrimidin-7-yl}acetate] the IC50 [1] was less than 50 µM and the IC50 [2] was less than 50 µM.
CN1CCN(C(=O)CC2CCc3c(sc4ncnc(Nc5ccc(F)c(Cl)c5)c34)C2)CC1 (stereo not shown) [Example 58, N-(3-chloro-4-fluorophenyl)-7-[2-(4-methyl-1-piperazinyl)-2-oxoethyl]-5,6,7,8-tetrahydro[1]benzothieno[2,3-d]pyrimidin-4-amine] gave an IC50 [1] of less than 5 µM and an IC50 [2] of less than 5 µM.
For CN1CCN(CCC2CCc3c(sc4ncnc(Nc5ccc(F)c(Cl)c5)c34)C2)CC1 (stereo not shown) [Example 59, N-(3-chloro-4-fluorophenyl)-7-[2-(4-methyl-1-piperazinyl)ethyl]-5,6,7,8-tetrahydro[1]benzothieno[2,3-d]pyrimidin-4-amine], the IC50 [1] was less than 5 µM and the IC50 [2] was less than 5 µM.
With CN(C)[C@@H]1CCN(C(=O)C2CCc3c(sc4ncnc(Nc5cccc(Br)c5)c34)C2)C1 (stereo partly drawn) [Example 60, N-(3-bromophenyl)-7-{[(3R)-3-(dimethylamino)-1-pyrrolidinyl]carbonyl}-5,6,7,8-tetrahydro[1]benzothieno[2,3-d]pyrimidin-4-amine] the IC50 [1] was less than 5 µM and the IC50 [2] was less than 5 µM.
Work on O=C(CC1CCc2c(sc3ncnc(Nc4ccc(F)c(Cl)c4)c23)C1)N1CCOCC1 (stereo not shown) [Example 61, N-(3-chloro-4-fluorophenyl)-7-[2-(4-morpholinyl)-2-oxoethyl]-5,6,7,8-tetrahydro[1]benzothieno[2,3-d]pyrimidin-4-amine] yielded an IC50 [1] of less than 5 µM and an IC50 [2] of less than 50 µM.
Compound COCCNC(=O)CC1CCc2c(sc3ncnc(Nc4ccc(F)c(Cl)c4)c23)C1 (stereo not shown) [Example 62, 2-{4-[(3-chloro-4-fluorophenyl)amino]-5,6,7,8-tetrahydro[1]benzothieno[2,3-d]pyrimidin-7-yl}-N-(2-methoxyethyl)acetamide] has an IC50 [1] of less than 5 µM and an IC50 [2] of less than 5 µM.
CCOC(=O)CC1CCc2c(sc3ncnc(Nc4cccc(Br)c4)c23)C1 (stereo not shown) [Example 63, ethyl {4-[(3-bromophenyl)amino]-5,6,7,8-tetrahydro[1]benzothieno[2,3-d]pyrimidin-7-yl}acetate] showed an IC50 [1] of less than 50 µM and an IC50 [2] of less than 50 µM.
Compound OCCC1CCc2c(sc3ncnc(Nc4ccc(F)c(Cl)c4)c23)C1 (stereo not shown) [Example 64, 2-{4-[(3-chloro-4-fluorophenyl)amino]-5,6,7,8-tetrahydro[1]benzothieno[2,3-d]pyrimidin-7-yl}ethanol] has an IC50 [1] of less than 50 µM and an IC50 [2] of less than 50 µM.
O=C(O)CC1CCc2c(sc3ncnc(Nc4cccc(Br)c4)c23)C1 (stereo not shown) [Example 65, {4-[(3-bromophenyl)amino]-5,6,7,8tetrahydro[1]benzothieno[2,3-d]pyrimidin-7-yl}acetic acid] gave an IC50 [1] of less than 50 µM and an IC50 [2] of less than 50 µM.
With CN(C)[C@@H]1CCN(CC2CCc3c(sc4ncnc(Nc5cccc(Br)c5)c34)C2)C1 (stereo partly drawn) [Example 66, N-(3-bromophenyl)-7-{[(3R)-3-(dimethylamino)-1-pyrrolidinyl]methyl}-5,6,7,8-tetrahydro[1]benzothieno[2,3-d]pyrimidin-4-amine] the IC50 [1] was less than 5 µM and the IC50 [2] was less than 5 µM.
For O=C(CC1CCc2c(sc3ncnc(Nc4ccc(F)c(Cl)c4)c23)C1)N1CCCCC1 (stereo not shown) [Example 67, N-(3-chloro-4-fluorophenyl)-7-[2-oxo-2-(1-piperidinyl)ethyl]-5,6,7,8-tetrahydro[1]benzothieno[2,3-d]pyrimidin-4-amine], the IC50 [1] was less than 50 µM and the IC50 [2] was less than 5 µM.
With CN1CCN(C(=O)CC2CCc3c(sc4ncnc(Nc5cccc(Br)c5)c34)C2)CC1 (stereo not shown) [Example 68, N-(3-bromophenyl)-7-[2-(4-methyl-1-piperazinyl)-2-oxoethyl]-5,6,7,8-tetrahydro[1]benzothieno[2,3-d]pyrimidin-4-amine] the IC50 [1] was less than 50 µM and the IC50 [2] was less than 50 µM.
O=C(CC1CCc2c(sc3ncnc(Nc4cccc(Br)c4)c23)C1)NCCN1CCOCC1 (stereo not shown) [Example 69] was tested, and the IC50 [1] was less than 50 µM and the IC50 [2] was less than 50 µM.
O=C(CC1CCc2c(sc3ncnc(Nc4cccc(Br)c4)c23)C1)N1CCOCC1 (stereo not shown) [Example 70] gave an IC50 [1] of less than 5 µM and an IC50 [2] of less than 50 µM.
With O=C(CC1CCc2c(sc3ncnc(Nc4cccc(Br)c4)c23)C1)N1CCCCC1 (stereo not shown) [Example 71, N-(3-bromophenyl)-7-[2-oxo-2-(1-piperidinyl)ethyl]-5,6,7,8-tetrahydro[1]benzothieno[2,3-d]pyrimidin-4-amine] the IC50 [1] was less than 50 µM and the IC50 [2] was less than 50 µM.
O=C(O)CC1CCc2c(sc3ncnc(Nc4ccc(F)c(Cl)c4)c23)C1 (stereo not shown) [Example 72] gave an IC50 [1] of less than 5 µM and an IC50 [2] of less than 50 µM.
Compound Fc1ccc(Nc2ncnc3sc4c(c23)CCC(CCN2CCCCC2)C4)cc1Cl (stereo not shown) [Example 73, N-(3-chloro-4-fluorophenyl)-7-[2-(1-piperidinyl)ethyl]-5,6,7,8-tetrahydro[1]benzothieno[2,3-d]pyrimidin-4-amine] has an IC50 [1] of less than 5 µM and an IC50 [2] of less than 5 µM.
Fc1ccc(Nc2ncnc3sc4c(c23)CCC(CCN2CCCC2)C4)cc1Cl (stereo not shown) [Example 74, N-(3-chloro-4-fluorophenyl)-7-[2-(1-pyrrolidinyl)ethyl]-5,6,7,8-tetrahydro[1]benzothieno[2,3-d]pyrimidin-4-amine] gave an IC50 [1] of less than 5 µM and an IC50 [2] of less than 5 µM.
Work on COCCNCCC1CCc2c(sc3ncnc(Nc4ccc(F)c(Cl)c4)c23)C1 (stereo not shown) [Example 75, N-(3-chloro-4-fluorophenyl)-7-{2-[(2-methoxyethyl)amino]ethyl}-5,6,7,8-tetrahydro[1]benzothieno[2,3-d]pyrimidin-4-amine] yielded an IC50 [1] of less than 5 µM and an IC50 [2] of less than 5 µM.
COc1ccc(NCCC2CCc3c(sc4ncnc(Nc5ccc(F)c(Cl)c5)c34)C2)cc1 (stereo not shown) [Example 76, N-(3-chloro-4-fluorophenyl)-7-{2-[(4-methoxyphenyl)amino]ethyl}-5,6,7,8-tetrahydro[1]benzothieno[2,3-d]pyrimidin-4-amine] gave an IC50 [1] of less than 50 µM and an IC50 [2] of less than 50 µM.
Work on CS(=O)(=O)CCNC(=O)CC1CCc2c(sc3ncnc(Nc4cccc(Br)c4)c23)C1 (stereo not shown) [Example 77, 2-{4-[(3-bromophenyl)amino]-5,6,7,8-tetrahydro[1]benzothieno[2,3-d]pyrimidin-7-yl}-N-[2-(methylsulfonyl)ethyl]acetamide] yielded an IC50 [1] of less than 5 µM and an IC50 [2] of less than 5 µM.
Brc1cccc(Nc2ncnc3sc4c(c23)CCC(CCNCCN2CCOCC2)C4)c1 (stereo not shown) [Example 78, N-(3-bromophenyl)-7-(2-{[2-(4-morpholinyl)ethyl]amino}ethyl)-5,6,7,8-tetrahydro[1]benzothieno[2,3-d]pyrimidin-4-amine] gave an IC50 [1] of less than 5 µM and an IC50 [2] of less than 5 µM.
Brc1cccc(Nc2ncnc3sc4c(c23)CCC(CCN2CCCCC2)C4)c1 (stereo not shown) [Example 79, N-(3-bromophenyl)-7-[2-(1-piperidinyl)ethyl]-5,6,7,8-tetrahydro[1]benzothieno[2,3-d]pyrimidin-4-amine] was tested, and the IC50 [1] was less than 5 µM and the IC50 [2] was less than 5 µM.
